In PubChem BioAssay AID1288 (Columbia University Molecular Screening Center, 2008):
Activity calls are given as the source filed them. The rule behind the calls is not given here.

Experiments:
[1] = tested on: human endothelial cells, TNFa-induced E-selectin, imaging; test: E-selectin induction blockers, endothelial cells – imaging, retest plus dose response, cell count, confirmation (AID 1288)
[2] = as above; details: human endothelial cells, TNFa-induced E-selectin, imaging; cell count toxicity; at 10 µM; stronger effect = lower value

| Structure (SMILES) | IC50 [1] | cell count [2] [%] |
| --- | --- | --- |
| N#Cc1ccc(-c2cccnc2)nc1SCc1ccc(Cl)c(Cl)c1 | 2.75 µM | 2.48 |
| CN1C(=O)/C(=C/c2cccn2-c2ccc3ccccc3c2)C(=O)NC1=S | 6.93 µM | 106 |
| O=S(=O)(/C(=C/c1ccc(C(F)(F)F)cc1)c1nc2ccccc2[nH]1)c1ccccc1 | > 10 µM (inactive) | 104 |
| COc1ccc(NC(=O)/C(Cl)=C(/Cl)S(=O)Cc2ccc(Cl)cc2)cn1 (configuration not stated) | 1.66 µM | 0.27 |
| CS(=O)(=O)c1ccc(S(=O)CC(=O)OCc2ccccc2)c([N+](=O)[O-])c1 (configuration not stated) | > 10 µM (inactive) | 98.7 |
| C=CCSc1nc2ccccc2n1C(=O)/C=C/c1cc(OC)c(OC)c(OC)c1 | 2.17 µM | 24.8 |
| Cc1ccc(-c2nc(NC(=O)c3nn(C)cc3[N+](=O)[O-])sc2C)cc1 | 5.25 µM | 69.6 |
| CCOC(=O)CS(=O)(=O)c1nc(-c2ccc(F)cc2)cc(C(F)(F)F)n1 | > 10 µM (inactive) | 98.3 |
| CC1C/C(=C/c2ccncc2)C(=O)/C(=C/c2ccncc2)C1 (configuration not stated) | 4.92 µM | 84.9 |
| CN(C)C(=O)Oc1c(Cl)cc(Cl)c2cccnc12 | 2.55 µM | 20.8 |
| COc1ccc(NC(=O)/C(Cl)=C(/Cl)S(=O)(=O)Cc2ccc(C)cc2)cn1 | > 10 µM (inactive) | 89.6 |
| COc1ccc(Oc2cc(NC(=O)c3nn(C)cc3[N+](=O)[O-])cc([N+](=O)[O-])c2)cc1 | 3.5 µM | 23.9 |
| CCc1ccc(N2C(=O)NC(=O)/C(=C/c3cccn3CCOc3ccc(C(C)CC)cc3)C2=O)cc1 (configuration not stated) | 1.37 µM | 17.9 |
| COc1ccc(CS(=O)(=O)/C(Cl)=C(/Cl)C(=O)Nc2ccc(OC)nc2)cc1 | > 10 µM (inactive) | 105 |
| COc1cc(NC(=O)Cn2ncc(Cl)c(Cl)c2=O)c(C)cc1[N+](=O)[O-] | > 10 µM (inactive) | 90.1 |
| O=C(Nc1ccc2nc(SCc3ccc(Cl)cc3)sc2c1)c1ccccc1C(=O)N1CCOCC1 | 2.83 µM | 40 |
| Cc1ccc(-c2nc(NC(=O)c3nn(C)cc3[N+](=O)[O-])sc2C)cc1C | > 10 µM (inactive) | 106 |
| CCN1C/C(=C/c2ccc(OC)c(O)c2)C(=O)/C(=C/c2ccc(OC)c(O)c2)C1 | 3.01 µM | 15.1 |
| O=C(OCn1ncc(Cl)c(Cl)c1=O)c1ccccc1Cl | > 10 µM (inactive) | 45.3 |
| CC(C)(C)C(=O)/C(=C\c1ccc([N+](=O)[O-])cc1)n1cncn1 | > 10 µM (inactive) | 94.9 |
| CN(C)c1nc(C=C(C#N)C#N)c(Cl)n1-c1ccc(F)cc1 | 1.74 µM | 46.6 |

| Structure (SMILES) | IC50 [1] | cell count [2] [%] |
| --- | --- | --- |
| C=C1C(=O)C=C2CN(C(=O)c3ccccc3)[C@@](Cc3ccc(F)cc3)(C(=O)OC)[C@@H]12 | > 10 µM (inactive) | 104 |
| Cc1nc2scc(-c3ccccc3)c2c(=O)n1N=C1C=CC(=O)C=C1 | > 10 µM (inactive) | 92.3 |
| C=CS(=O)(=O)c1ccc(Oc2ccc(S(=O)(=O)C=C)cc2)cc1 | > 10 µM (inactive) | 95.2 |
| COc1cccc(-n2nc(C#N)c(Cl)cc2=O)c1 | > 10 µM (inactive) | 104 |
| CC(C)(C)C1=CC(=O)C(=O)C(C(C)(C)C)=C1 | > 10 µM (inactive) | 95 |
| COc1ccc(-c2nnc(SCC(=O)N3CCOCC3)o2)cc1OC | 4.05 µM | 18.5 |
| COC(=O)/C=C/S(=O)(=O)c1ccc(NC(C)=O)cc1 | > 10 µM (inactive) | 106 |
| Cc1c(Nc2cc(Cl)c3nonc3c2[N+](=O)[O-])c(=O)n(-c2ccccc2)n1C | 6.67 µM | 66.3 |
| O=Cc1s/c(=N\S(=O)(=O)c2ccccc2)n(CCCCl)c1Cl | > 10 µM (inactive) | 108 |
| CCCn1c(=NC(=O)c2ccco2)c(C(=O)OCC)cc2c(=O)n3ccccc3nc21 | 4.41 µM | 64.4 |
| Cc1ccccc1NC1=C/C(=N\S(=O)(=O)c2cccs2)c2ccccc2C1=O | > 10 µM (inactive) | 107 |
| CCc1c(C)c(C#N)c2nc3ccccc3n2c1Cl | 1.98 µM | 70 |
| CC(C)(C)C(=O)/C(=C/c1cccc([N+](=O)[O-])c1)n1cncn1 | > 10 µM (inactive) | 101 |
| CCOc1cc(C(=O)NCc2ccc(-c3nc4ccccc4o3)cc2)cc(OCC)c1OCC | 2.39 µM | 22.9 |
| CC(C)(C)C(=O)/C(=C\c1cccc([N+](=O)[O-])c1)n1cncn1 | 3.04 µM | 23.9 |
| CC(C)Oc1ccc(/C=N/NC(=O)C(CSCc2ccccc2)NC(=O)c2ccc([N+](=O)[O-])cc2)cc1 (configuration not stated) | > 10 µM (inactive) | 71.8 |
| Cn1cc([N+](=O)[O-])c(C(=O)Nc2nc(-c3ccc(Cl)cc3)cs2)n1 | > 10 µM (inactive) | 97.8 |
| O=C(/C=C/c1cccc([N+](=O)[O-])c1)n1cnc2ccccc21 | 3.81 µM | 19.1 |
| O=C(c1ccc([N+](=O)[O-])cc1)N(Cc1ccc(Br)cc1)N1C(=O)CCCC1=O | 6.82 µM | 95.3 |
| COc1ccc(NC(=O)c2cc3c(Cl)nc4ccccc4c3s2)c(OC)c1 | > 10 µM (inactive) | 89.6 |
| N#CC(C#N)=C1C=CC=CN1/C(=C\c1ccco1)C(=O)c1ccc(-c2ccccc2)cc1 | 2.85 µM | 2.93 |

| Structure (SMILES) | IC50 [1] | cell count [2] [%] |
| --- | --- | --- |
| O=S1(=O)C=C(Sc2nnc(-c3ccccc3)o2)c2ccccc21 | > 10 µM (inactive) | 72.7 |
| Cc1ccc2nc3cc([N+](=O)[O-])cc([N+](=O)[O-])c3cc2c1 | > 10 µM (inactive) | 101 |
| COc1ccc(NC(=O)/C(Cl)=C(/Cl)S(=O)Cc2ccccc2Cl)cn1 (configuration not stated) | 5.39 µM | 99.9 |
| O=C(Cn1ncc(Cl)c(Cl)c1=O)N1CCc2ccccc21 | 2.48 µM | 40 |
| COCCN(CC(=O)NC1CCCCC1)C(=O)/C=C/C(=O)c1ccc(OC)cc1O | > 10 µM (inactive) | 95 |
| Cn1c(SC2=CS(=O)(=O)c3ccccc32)nc2ccccc21 | 2.53 µM | 13.4 |
| COC(=O)c1ccccc1NC(=O)c1ccc(-c2cccc(Cl)c2)o1 | 2.09 µM | 13.8 |
| CCN(CC)c1ccc2c(Cl)c(Br)c(=O)oc2c1 | 2.16 µM | 11.5 |
| CCOC(=O)CS(=O)(=O)c1nc(-c2ccccc2)cc(C(F)(F)F)n1 | > 10 µM (inactive) | 106 |
| O=C(NCCC1=CCCCC1)c1coc(=O)c(Br)c1 | 2.77 µM | 1.14 |
| Cc1cc2cc(C=C(C#N)C#N)c(Cl)nc2cc1C | 2.39 µM | 4.88 |
| COc1ccc(CS(=O)/C(Cl)=C(/Cl)C(=O)Nc2ccc(OC)nc2)cc1 (configuration not stated) | 2.02 µM | 10.3 |
| COCC(C)NC(=O)CCS(=O)(=O)c1nc(-c2ccc(OC)cc2)cc(C(F)(F)F)n1 (configuration not stated) | > 10 µM (inactive) | 83 |
| O=S(=O)(C/C(=C/CO)S(=O)(=O)c1ccccc1)c1ccccc1 | > 10 µM (inactive) | 97.8 |
| C#CC(=O)N(c1cccc(OC)c1)C(C(=O)NC1CCCC1)c1cccs1 (configuration not stated) | > 10 µM (inactive) | 90 |
| CCOC(=O)/C=C/S(=O)(=O)c1ccc(NC(C)=O)cc1 | 1.39 µM | 6.27 |
| COc1cccc(N2CCN(c3ncnc4c3[nH]c3ccc(F)cc34)CC2C)c1 (configuration not stated) | 1.41 µM | 40.9 |
| C=C1C(=O)[C@@]23[C@H](O)C[C@@H]4C(C)(C)CC[C@H](O)[C@@]4(C)[C@@H]2CC[C@@H]1[C@H]3O | 2 µM | 10.1 |
| O=C(OCn1ncc(Br)c(Br)c1=O)c1ccc(F)cc1 | > 10 µM (inactive) | 53.9 |
